How the values were obtained:
Test in all cases: relative viability (nuclei count vs DMSO), 5 days (fraction); higher = more cells survive
Wnt-C59 = compound: CC1=NC=CC(=C1)C2=CC=C(C=C2)CC(=O)NC3=CC=C(C=C3)C4=CN=CC=C4 [Wnt-C59]
Summary of the method: (§1)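 After an overnight hold at 37 °C, lung cancer cell lines in 1536-well plates were pinned with five library-drug doses (not always all listed), each √10 from the next, on vehicle-anchored plates. The cells stayed 5 days without fresh medium, then a one-step fix, permeabilisation and Hoechst stain preceded 4× imaging and MetaXpress nuclear counts. A plate passed only with control CV under 25% and at least one doubling. Viability is the median, over plates, of treated-well nuclei relative to vehicle-well nuclei.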

Lapatinib = compound: CS(=O)(=O)CCNCc1ccc(-c2ccc3ncnc(Nc4ccc(OCc5cccc(F)c5)c(Cl)c4)c3c2)o1 [Lapatinib]
Summary of the method: as §1

Wnt-C59 + Palbociclib = compound: CC1=NC=CC(=C1)C2=CC=C(C=C2)CC(=O)NC3=CC=C(C=C3)C4=CN=CC=C4 [Wnt-C59] + CC(=O)c1c(C)c2cnc(Nc3ccc(N4CCNCC4)cn3)nc2n(C2CCCC2)c1=O [Palbociclib] (partner 0.5 µM)
Summary of the method: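 Values are medians from duplicate plates. Each reflects relative viability, defined as the nuclei count of treated wells over that of vehicle wells. Lung cancer cell lines in 1536-well plates were pin-tool dosed one day after seeding with one drug alone or with a fixed anchor-drug dose plus five library-drug doses (not always all listed) in √10 steps, then fixed, stained and imaged at 4× after 5 days.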

UMC-11 showed a relative viability (Wnt-C59; 0.001 µM) of 0.909, a relative viability (Wnt-C59; 0.01 µM) of 1.04 and a relative viability (Wnt-C59; 0.03162 µM) of 1.08. It also gave a relative viability (Wnt-C59; 0.1 µM) of 1.03, a relative viability (Lapatinib; 0.02 µM) of 0.906 and a relative viability (Lapatinib; 0.06325 µM) of 0.935. The relative viability (Lapatinib; 0.2 µM) was 1.02, the relative viability (Lapatinib; 0.6325 µM) was 0.998 and the relative viability (Lapatinib; 2 µM) was 0.942. It also gave a relative viability (Lapatinib; 2 µM, anchor plate) of 1.02, a relative viability (Wnt-C59 + Palbociclib; first compound 0.001 µM) of 0.337 and a relative viability (Wnt-C59 + Palbociclib; first compound 0.01 µM) of 0.319. It also gave a relative viability (Wnt-C59 + Palbociclib; first compound 0.03162 µM) of 0.361 and a relative viability (Wnt-C59 + Palbociclib; first compound 0.1 µM) of 0.305.
